According to article PMC3030623 (Journal of the American Chemical Society, 2010):

Target: T1, Sfp (Bacillus subtilis, UniProt P39135)
T1 sequence (P39135 1-224): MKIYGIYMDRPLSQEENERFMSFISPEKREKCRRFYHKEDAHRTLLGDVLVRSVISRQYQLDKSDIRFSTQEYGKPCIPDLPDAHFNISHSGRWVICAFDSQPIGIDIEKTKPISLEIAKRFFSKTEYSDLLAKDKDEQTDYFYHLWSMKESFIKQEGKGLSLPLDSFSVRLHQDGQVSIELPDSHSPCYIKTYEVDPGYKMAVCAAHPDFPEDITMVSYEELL
Test: ESI-MS of acyl-phosphopantetheine transfer to apo-ACPtcsA
Type: biochemical
Details: co-substrate apo-ACPtcsA (ACP domain of TcsA)

## CC/C=C/C(=O)SCCNC(=O)CCNC(=O)[C@H](O)C(C)(C)COP(=O)(O)OP(=O)(O)OC[C@H]1O[C@@H](n2cnc3c(N)ncnc32)[C@H](O)[C@@H]1OP(=O)(O)O [compound 11, trans-2-pentenyl-CoA]
  ESI-MS of acyl-phosphopantetheine transfer to apo-ACPtcsA: we biochemically converted apo-ACPtcsA to trans-2-pentenyl-ACPtcsA
